Reference: patent US12595239B2, “Substituted isoxazoline derivatives” (BASF SE, priority 2021, dated 2026)

Experiments:
Format in all cases: in vivo
Plutella xylostella = test: B.6 Diamond Back Moth, cabbage leaf disc dip test; details: foliar, 3rd instar larvae, 72 hours after treatment, read-out: mortality in comparison with untreated controls
Experimental: The active compound was dissolved at the desired concentration in a mixture of 1:1 (vol:vol) distilled water:acetone. Surfactant (Kinetic) was added at a rate of 0.01% (vol/vol). The test solution was prepared at the day of use. Cabbage leaf discs (60 mm in diameter) were dipped in test solution and air-dried. Treated leaves were placed in petri dishes lined with moistened filter paper and inoculated with ten 3rd instar larvae. Mortality was recorded 72 hours after treatment. Feeding damages were also recorded using a scale of 0-100%.

Dichromothrips corbetti = test: B.7 Orchid Thrips, floral-immersion test; details: adult thrips, 72 hours after treatment, read-out: mortality in comparison with untreated controls
Experimental: Dichromothrips corbetti adults used for bioassay were obtained from a colony maintained continuously under laboratory conditions. For testing purposes, the test compound was diluted in a 1:1 mixture of acetone:water (vol:vol), plus Kinetic at a rate of 0.01% v/v.
Thrips potency of each compound was evaluated by using a floral-immersion technique. Each orchid petal was dipped into treatment solution and allowed to dry in Petri dishes. Treated petals were placed into individual re-sealable plastic along with about 20 adult thrips. All test arenas were held under dark condition and a temperature of about 28° C. for duration of the assay. The percent mortality was recorded 72 hours after treatment.

Nezara viridula = test: B.8 Green Soldier Stink Bug, soybean pod spray test; details: 120 h, late 3rd instar, after 5 days, read-out: mortality in comparison with untreated controls
Experimental: The active compound was dissolved at the desired concentration in a mixture of 1:1 (vol:vol) distilled water:aceteone. Surfactant (Kinetic) was added at a rate of 0.01% (vol/vol). The test solution was prepared at the day of use. Soybean pods were placed in 90×50 mm glass Petri dishes lined with moistened filter paper and inoculated with ten late 3rd instar N. viridula. Using a hand atomizer, an approximately 2 ml solution was sprayed into each Petri dish. Treated setup was kept at about 25-26° C. and relative humidity of about 65-70%. Percent mortality was recorded after 5 days.

Nephotettix virescens = test: B.9 Rice Green Leafhopper, rice seedling spray test; details: adults, after 72 hours, read-out: mortality in comparison with untreated controls
Experimental: Four to five-week old rice seedlings with cut upper leaf portion were cleaned and washed 24 hours before spraying. The active compounds were formulated in 1:1 acetone:water (vol:vol), and 0.01% vol/vol surfactant (Kinetic) was added. Potted rice seedlings were sprayed with 5-6 ml test solution, air dried, covered with Mylar cages and inoculated with 10 adults. Treated rice plants were kept at about 28-29° C. and relative humidity of about 50-60%. Percent mortality was recorded after 72 hours.

[1] = system: Trialeurodes vaporarirorum; test: B.2 Greenhouse Whitefly, microtiter plate eggplant leaf disk test; details: foliar, 144 h, mortality of hatched crawlers, 6 days, read-out: mortality in comparison with untreated controls
Experimental: For evaluating control of Greenhouse Whitefly, the test unit consisted of 96-well-microtiter plates containing a leaf disk of eggplant leaf disk with Whitefly eggs. The compounds or mixtures were formulated using a solution containing 75% water and 25% DMSO. Different concentrations of formulated were sprayed onto the insect diet at 2.5 μl, using a custom-built micro atomizer, at two replications. After application, microtiter plates were incubated at 23±1° C., 65±5% RH for 6 days. Mortality of hatched crawlers was then visually assessed.

Spodoptera eridania = test: B.11 Southern Armyworm 2nd instar larvae, lima bean foliar spray test; details: 96 h, 4 days after treatment, read-out: mortality in comparison with untreated controls
Experimental: The active compounds were formulated by a Tecan liquid handler in 100% cyclohexanone as a 10′000 ppm solution supplied in tubes. The 10′000 ppm solution was serially diluted in 100% cyclohexanone to make interim solutions. These served as stock solutions for which final dilutions were made by the Tecan in 50% acetone:50% water (v/v) into 10 or 20 ml glass vials. A nonionic surfactant (Kinetic®) was included in the solution at a volume of 0.01% (v/v). The vials were then inserted into an automated electrostatic sprayer equipped with an atomizing nozzle for application to plants/insects. Lima bean plants (variety Sieva) were grown 2 plants to a pot and selected for treatment at the 1st true leaf stage. Test solutions were sprayed onto the foliage by an automated electrostatic plant sprayer equipped with an atomizing spray nozzle. The plants were dried in the sprayer fume hood and then removed from the sprayer. Each pot was placed into perforated plastic bags with a zip closure. Ten to 11 armyworm larvae were placed into the bag and the bags zipped closed. Test plants were maintained in a growth room at about 25° C. and about 20-40% relative humidity for 4 days, avoiding direct exposure to fluorescent light (14:10 light:dark photo-period) to prevent trapping of heat inside the bags. Mortality and reduced feeding were assessed 4 days after treatment, compared to untreated control plants.

Anthonomus grandis = test: B.1 Boll weevil (Anthonomus grandis), 96-well microtiter plate diet test; details: 120 h, egg and larval mortality, 5 days, read-out: mortality in comparison with untreated controls
Experimental: For evaluating control of boll weevil, the test unit consisted of 96-well-microtiter plates containing an insect diet and 5-10 A. grandis eggs.
The compounds were formulated using a solution containing 75% v/v water and 25% v/v DMSO. Different concentrations of formulated compounds were sprayed onto the insect diet at 5 μl, using a custom-built micro atomizer, at two replications.
After application, microtiter plates were incubated at about 25±1° C. and about 75±5% relative humidity for 5 days. Egg and larval mortality were then visually assessed.

Myzus persicae = test: B.3 Green Peach Aphid (mixed life stages), systemic artificial diet test; details: 72 h, treated aphid diet, 3 days, read-out: mortality in comparison with untreated controls
Text: For evaluating control of Green Peach Aphid through systemic means the test unit consisted of 96-well-microtiter plates containing liquid artificial diet under an artificial membrane. The compounds were formulated using a solution containing 75% v/v water and 25% v/v DMSO. Different concentrations of formulated compounds were pipetted into the aphid diet, using a custom-built pipette, at two replications. After application, 5-8 adult aphids were placed on the artificial membrane inside the microtiter plate wells. The aphids were then allowed to suck on the treated aphid diet and incubated at about 23±1° C. and about 50±5% relative humidity for 3 days. Aphid mortality and fecundity was then visually assessed.

Heliothis virescens = test: B.4 Tobacco Budworm, microtiter plate diet test; details: 120 h, egg and larval mortality, 5 days, read-out: mortality in comparison with untreated controls
Experimental: For evaluating control of Tobacco Budworm, the test unit consisted of 96-well-microtiter plates containing an insect diet and 15-25 H. virescens eggs. The compounds were formulated using a solution containing 75% v/v water and 25% v/v DMSO. Different concentrations of formulated compounds were sprayed onto the insect diet at 10 μl, using a custom-built micro atomizer, at two replications. After application, microtiter plates were incubated at about 28±1° C. and about 80±5% relative humidity for 5 days. Egg and larval mortality was then visually assessed.

Aedes aegypti = test: whole plant or invertebrate; details: 48 h, larval mortality, 2 days, read-out: mortality in comparison with untreated controls
Experimental: For evaluating control of Yellow Fever Mosquito, the test unit consisted of 96-well-microtiter plates containing 200 μl of tap water per well and 5-15 freshly hatched A. aegypti larvae. The active compounds were formulated using a solution containing 75% (v/v) water and 25% (v/v) DMSO. Different concentrations of formulated compounds or mixtures were sprayed onto the insect diet at 2.5 μl, using a custom-built micro atomizer, at two replications.
After application, microtiter plates were incubated at 28±1° C., 80±5% RH for 2 days. Larval mortality was then visually assessed.

Tetranychus kanzawai = test: B.10 Red Spider Mite, cowpea bean spray test; details: 72 hours after treatment, read-out: mortality in comparison with untreated controls
Experimental: The active compound was dissolved at the desired concentration in a mixture of 1:1 (vol:vol) distilled water:acetone. Add surfactant (Kinetic) was added at a rate of 0.01% (vol/vol). The test solution was prepared at the day of use. Potted cowpea beans of 4-5 days of age were cleaned with tap water and sprayed with I-2 ml of the test solution using air driven DeVilbiss® hand atomizer at 20-30 psi (≈1,38 to 2,07 bar). The treated plants were allowed to air dry and afterwards inoculated with 30 or more mites by clipping a cassava leaf section from rearing population. Treated plants were placed inside a holding room at about 25-26° C. and about 65-70% relative humidity. Percent mortality was assessed 72 hours after treatment.

Bemisia argentifolii = test: B.12 Silverleaf Whitefly (adults), cotton plant spray test; details: 72 h, 3 days after treatment, read-out: mortality in comparison with untreated controls
Experimental: The active compounds were formulated by a Tecan liquid handler in 100% cyclohexanone as a 10,000-ppm solution supplied in tubes. The 10,000-ppm solution was serially diluted in 100% cyclohexanone to make interim solutions. These served as stock solutions for which final dilutions were made by the Tecan in 50% acetone:50% water (v/v) into 5 or 10 ml glass vials. A nonionic surfactant (Kinetic®) was included in the solution at a volume of 0.01% (v/v). The vials were then inserted into an automated electrostatic sprayer equipped with an atomizing nozzle for application to plants/insects. Cotton plants at the cotyledon stage (one plant per pot) were sprayed by an automated electrostatic plant sprayer equipped with an atomizing spray nozzle. The plants were dried in the sprayer fume hood and then removed from the sprayer. Each pot was placed into a plastic cup and about 10 to 12 whitefly adults (approximately 3-5 days old) were introduced. The insects were collected using an aspirator and a nontoxic Tygon® tubing connected to a barrier pipette tip. The tip, containing the collected insects, was then gently inserted into the soil containing the treated plant, allowing insects to crawl out of the tip to reach the foliage for feeding. Cups were covered with a reusable screened lid. Test plants were maintained in a growth room at about 25° C. and about 20-40% relative humidity for 3 days, avoiding direct exposure to fluorescent light (14:10 light:dark photoperiod) to prevent trapping of heat inside the cup. Mortality was assessed 3 days after treatment, compared to untreated control plants.

CCN1OC[C@@H](NC(=O)c2cc(N(C)C3=NOC(c4cc(Cl)c(F)c(Cl)c4)(C(F)(F)F)C3)ccc2Cl)C1=O (stereo partly drawn) [I-119, 2-chloro-5-[[5-(3,5-dichloro-4-fluoro-phenyl)-5-(trifluoromethyl)-4H-isoxazol-3-yl]-methyl-amino]-N-[(4R)-2-ethyl-3-oxo-isoxazolidin-4-yl]benzamide]
≥ 75%: mortality at 300 ppm (Plutella xylostella) | mortality at 300 ppm (Dichromothrips corbetti) | mortality at 300 ppm (Nezara viridula) | mortality at 300 ppm (Nephotettix virescens)

O=C(Nc1ccc(F)cc1F)c1cc(NC2=NOC(c3cccc(C(F)(F)F)c3)(C(F)(F)F)C2)ccc1Cl (stereo not shown) [I-38, 2-chloro-N-(2,4-difluorophenyl)-5-[[5-(trifluoromethyl)-5-[3-(trifluoromethyl)phenyl]-4H-isoxazol-3-yl]amino]benzamide]
≥ 75%: mortality at 2500 ppm [1] | mortality at 300 ppm (Plutella xylostella) | mortality at 300 ppm (Dichromothrips corbetti) | mortality at 300 ppm (Nezara viridula) | mortality at 300 ppm (Spodoptera eridania)

Nc1c(F)ccc(NC(=O)c2cc(NC3=NOC(c4cc(Cl)cc(Cl)c4)(C(F)(F)F)C3)ccc2Cl)c1F (stereo not shown) [I-4, N-(3-amino-2,4-difluoro-phenyl)-2-chloro-5-[[5-(3,5-dichlorophenyl)-5-(trifluoromethyl)-4H-isoxazol-3-yl]amino]benzamide]
≥ 75%: mortality at 2500 ppm (Anthonomus grandis) | mortality at 2500 ppm (Myzus persicae) | mortality at 2500 ppm (Heliothis virescens) | mortality at 2500 ppm (Aedes aegypti) | mortality at 300 ppm (Plutella xylostella) | mortality at 300 ppm (Dichromothrips corbetti) | mortality at 300 ppm (Nezara viridula)

N#CC1(NC(=O)c2cc(N(CC3CC3)C3=NOC(c4cc(Cl)cc(Cl)c4)(C(F)(F)F)C3)ccc2Cl)CC1 (stereo not shown) [I-60, 2-chloro-N-(1-cyanocyclopropyl)-5-[cyclopropylmethyl-[5-(3,5-dichlorophenyl)-5-(trifluoromethyl)-4H-isoxazol-3-yl]amino]benzamide]
≥ 75%: mortality at 300 ppm (Plutella xylostella) | mortality at 300 ppm (Dichromothrips corbetti) | mortality at 300 ppm (Nezara viridula) | mortality at 300 ppm (Nephotettix virescens) | mortality at 300 ppm (Spodoptera eridania)

O=C(NC1C[S+]([O-])C1)c1cc(NC2=NOC(c3cc(Cl)c(F)c(Cl)c3)(C(F)(F)F)C2)ccc1Cl (stereo not shown) [I-61, 2-chloro-5-[[5-(3,5-dichloro-4-fluoro-phenyl)-5-(trifluoromethyl)-4H-isoxazol-3-yl]amino]-N-(1-oxothietan-3-yl)benzamide]
≥ 75%: mortality at 300 ppm (Plutella xylostella) | mortality at 300 ppm (Dichromothrips corbetti) | mortality at 300 ppm (Tetranychus kanzawai) | mortality at 300 ppm (Spodoptera eridania)

CCOC(=O)N(C1=NOC(c2cc(Cl)cc(Cl)c2)(C(F)(F)F)C1)c1ccc(Cl)c(C(=O)NC2(C#N)CC2)c1 (stereo not shown) [I-111, ethyl N-[4-chloro-3-[(1-cyanocyclopropyl)carbamoyl]phenyl]-N-[5-(3,5-dichlorophenyl)-5-(trifluoromethyl)-4H-isoxazol-3-yl]carbamate]
≥ 75%: mortality at 300 ppm (Plutella xylostella) | mortality at 300 ppm (Dichromothrips corbetti) | mortality at 300 ppm (Nezara viridula) | mortality at 300 ppm (Tetranychus kanzawai) | mortality at 300 ppm (Spodoptera eridania) | mortality at 300 ppm (Bemisia argentifolii)
